Reference: patent US20060045905A1, “Composition for repressing transformation growth factor beta” (Taiyokagaku Co., Ltd., priority 2004, published 2006)

Tested on: mice
Assay type: in vivo
Settings: oral administration of theanine by 5 g/kg
From the text: Theanine used in the invention has a high security. […] Furthermore, theanine is known as a principal component of deliciousness of tea and used as a food additive for use as gustatory. An amount of theanine to be added is not limited under the Food Sanitation Law. Moreover, differing from conventional medical substances, theanine has no adverse side effect. Consequently, the composition of the invention can be used as a safe and effective composition for repressing TGF-β.

SMILES: CCNC(=O)CC[C@H](N)C(=O)O [theanine, L-theanine]
- mortality in acute toxicity test: no mice died
